Consider five compounds from ChEMBL document CHEMBL1781959, “Synthesis and in vitro antitumor activity of substituted quinazoline and quinoxaline derivatives: search for anticancer agent” (Eur J Med Chem, 2011).

Structures are written as SMILES.

What all share (format): functional
For experiment [1], the system named is NCI-H522. The experiment is described as follows: Anticancer activity against human NCI-H522 cells assessed as cell growth promotion at 10^-5 M after 48 hrs by SRB assay relative to control. (In general: The SRB assay estimates cell density from bound dye.)
Experiment [2] has as its system T47D. Kind of experiment: Anticancer activity against human T47D cells assessed as cell growth promotion at 10^-5 M after 48 hrs by SRB assay relative to control.
For experiment [3], the system named is DU-145. The experiment is described as follows: Anticancer activity against human DU145 cells assessed as cell growth promotion at 10^-5 M after 48 hrs by SRB assay relative to control.
The subject of experiment [4] is OVCAR-8. The experiment is described as follows: Anticancer activity against human OVCAR8 cells assessed as cell growth promotion at 10^-5 M after 48 hrs by SRB assay relative to control.
The test system of experiment [5] is SK-OV-3. The experiment is described as follows: Anticancer activity against human SKOV3 cells assessed as cell growth promotion at 10^-5 M after 48 hrs by SRB assay relative to control.
Experiment [6] concerns KM12. The experiment is described as follows: Anticancer activity against human KM12 cells assessed as cell growth promotion at 10^-5 M after 48 hrs by SRB assay relative to control.
Experiment [7] deals with RXF 393. The experiment is described as follows: Anticancer activity against human RXF393 cells assessed as cell growth promotion at 10^-5 M after 48 hrs by SRB assay relative to control.
The test system of experiment [8] is SK-MEL-5. Kind of experiment: Anticancer activity against human SK-MEL-5 cells assessed as cell growth promotion at 10^-5 M after 48 hrs by SRB assay relative to control.
Experiment [9] concerns M14. The experiment is described as follows: Anticancer activity against human M14 cells assessed as cell growth promotion at 10^-5 M after 48 hrs by SRB assay relative to control.
For experiment [10], the system named is ACHN. Kind of experiment: Anticancer activity against human ACHN cells assessed as cell growth promotion at 10^-5 M after 48 hrs by SRB assay relative to control.
The test system of experiment [11] is SNB-19. Kind of experiment: Anticancer activity against human SNB19 cells assessed as cell growth promotion at 10^-5 M after 48 hrs by SRB assay relative to control.
The subject of experiment [12] is UO-31. Kind of experiment: Anticancer activity against human UO31 cells assessed as cell growth promotion at 10^-5 M after 48 hrs by SRB assay relative to control.
The test system of experiment [13] is EKVX. Kind of experiment: Anticancer activity against human EKVX cells assessed as cell growth promotion at 10^-5 M after 48 hrs by SRB assay relative to control.
Experiment [14] concerns SNB-75. Kind of experiment: Anticancer activity against human SNB75 cells assessed as cell growth promotion at 10^-5 M after 48 hrs by SRB assay relative to control.
Experiment [15] deals with SK-MEL-2. The experiment is described as follows: Anticancer activity against human SK-MEL-2 cells assessed as cell growth promotion at 10^-5 M after 48 hrs by SRB assay relative to control.
Experiment [16] concerns TK-10. Kind of experiment: Anticancer activity against human TK10 cells assessed as cell growth promotion at 10^-5 M after 48 hrs by SRB assay relative to control.
For experiment [17], the system named is MOLT-4. Kind of experiment: Anticancer activity against human MOLT4 cells assessed as cell growth promotion at 10^-5 M after 48 hrs by SRB assay relative to control.
In experiment [18] the test system is OVCAR-4. The experiment is described as follows: Anticancer activity against human OVCAR4 cells assessed as cell growth promotion at 10^-5 M after 48 hrs by SRB assay relative to control.
In experiment [19] the test system is MDA-MB-435. Kind of experiment: Anticancer activity against human MDA-MB-435 cells assessed as cell growth promotion at 10^-5 M after 48 hrs by SRB assay relative to control.
The subject of experiment [20] is BT-549. The experiment is described as follows: Anticancer activity against human BT549 cells assessed as cell growth promotion at 10^-5 M after 48 hrs by SRB assay relative to control.
The subject of experiment [21] is A498. The experiment is described as follows: Anticancer activity against human A498 cells assessed as cell growth promotion at 10^-5 M after 48 hrs by SRB assay relative to control.

Consider `O=C(Nc1ccccc1C(=O)Nc1ccc(/C=C/c2ccc(Cl)cc2)cc1)c1ccco1`, for which the Activity was 114% in experiment [1]; 106% in experiment [2]; 112% in experiment [3]; 100% in experiment [4]; 116% in experiment [5]; 110% in experiment [6]. Moreover, the Activity worked out at 117% in experiment [7]; 105% in [8]; 107% in experiment [9]; 100% in [10]; 107% in experiment [11]; 83.88% in [12]. Also, the Activity is 80.41% in [13]; 71.39% in experiment [14]; 136% in experiment [15]; 127% in experiment [16]; 100% in experiment [17]; 101% in experiment [18]. The Activity in experiment [19] is 101%; in [20], 127%; in experiment [21], 69.42%.

`O=C(O)c1ccc(-n2c(-c3ccco3)nc3ccccc3c2=O)cc1`: the Activity in [1] is recorded as 109.67%; in experiment [2], 83%; in experiment [3] it was 111.42%; in experiment [4] it was 104.87%; in experiment [5] it was 107.59%; in [6], 104.99%. The Activity in experiment [7] came to 109.93%; in [8] it was 94.96%; in experiment [9] it was 103.37%; in [10], 101.24%; in [11], 91.35%; in experiment [12], 68.61%. In addition, the Activity in experiment [13] is recorded as 98.39%; in experiment [14] it was 89.2%; in experiment [15], 93.19%; in [16] it was 94.73%; in [17], 91.05%; in experiment [18], 100.6%. In addition, the Activity is listed as 112.17% in experiment [19], 100.59% in experiment [20] and 106.88% in experiment [21].

In the case of `NS(=O)(=O)c1ccc(NC(=O)c2ccccc2NC(=O)c2ccco2)cc1`, the Activity was determined as 90.78% in experiment [1]; 103% in experiment [2]; 113% in experiment [3]; 103% in experiment [4]; 110% in experiment [5]; 108.4% in experiment [6]. Also, the Activity in experiment [7] is 113%; in [8], 108.4%; in experiment [9], 113.1%; in experiment [10], 101%; in experiment [11] it was 110.7%; in [12], 104%. In addition, the Activity is given as 97.23% in experiment [13]; 87.71% in experiment [14]; 115.3% in [15]; 102% in [16]; 87.33% in [17]; 98% in experiment [18]. Further, the Activity in experiment [19] is listed as 107.2%; in experiment [20], 111%; in experiment [21], -23%.

Turning to `N#Cc1ccc(/C=C/c2ccc(NC(=O)c3ccccc3NC(=O)c3ccco3)cc2)cc1`, the Activity in experiment [1] was found to be 106%; in experiment [2], 103%; in experiment [3], 104%; in experiment [4], 106%; in experiment [5], 111%; in experiment [6], 107%. The Activity in experiment [7] is on record as 114%; in experiment [8], 103%; in experiment [9] it was 112%; in [10], 104%; in experiment [11], 111%; in experiment [12] it was 84.8%. Moreover, the Activity in experiment [13] came to 88.81%; in experiment [14], 80%; in experiment [15], 116%; in experiment [16] it was 126%; in [17], 99.1%; in experiment [18] it was 100%. Also, the Activity in experiment [19] is given as 108%; in experiment [20] it was 109%; in [21], 94.62%.

With `O=C(Nc1ccccc1C(=O)Nc1ccc(/C=C/c2ccc(O)cc2)cc1)c1ccccc1`, the Activity in experiment [1] is listed as 69.87%; in experiment [2], 66.17%; in experiment [3], 100%; in experiment [4], 86.46%; in experiment [5], 92.69%; in experiment [6], 67.28%. In addition, the Activity in [7] was 97.37%; in experiment [8] it was 76.71%; in experiment [9], 81.74%; in [10] it was 58.96%; in experiment [11] it was 86.41%; in experiment [12] it was 39.29%. Moreover, the Activity in experiment [13] worked out at 85.24%; in experiment [14] it was 99.47%; in experiment [15], 99.47%; in experiment [16] it was 100%; in experiment [17], 44.21%; in [18], 82.05%. For the same compound, the Activity in experiment [19] stood at 86.41%; in [20], 65.95%; in [21], 85.08%.
